Laboratory results published in US7851472B2, “Triazolophthalazines” (NYCOMED GmbH, priority 2004, dated 2010).
“Also recorded” adds a separate entry of the source. Ends that are not written are not given here.

Test system: not given
Test: not given
Conditions: not given

Row | melting point | Compound
1 | 295 °C | COc1ccc(-c2nnc3c4ccccc4c(Nc4ccc(N)cc4)nn23)cc1 [Compound 1, N-[3-(4-Methoxyphenyl)-[1,2,4]triazolo[3,4-a]phthalazin-6-yl]-benzene-1,4-diamine]
2 | 323 °C | COc1ccc(-c2nnc3c4ccccc4c(Nc4ccc(NC(=O)c5ccccc5)cc4)nn23)cc1 [Compound 33, N-{4-[3-(4-Methoxyphenyl)-[1,2,4]triazolo[3,4-a]phthalazin-6-ylamino]-phenyl}-benzamide]
3 | 295 °C | COc1ccc(-c2nnc3c4ccccc4c(Nc4cccc(NC(C)=O)c4)nn23)cc1 [Compound 66, N-{3-[3-(4-Methoxyphenyl)-[1,2,4]triazolo[3,4-a]phthalazin-6-ylamino]-phenyl}-acetamide]
4 | 296 °C | COc1ccc(-c2nnc3c4ccccc4c(Nc4cccc(C(N)=O)c4)nn23)cc1 [Compound 109, 3-[3-(4-Methoxyphenyl)-[1,2,4]triazolo[3,4-a]phthalazin-6-ylamino]-benzamide]
5 | 316 °C | CNC(=O)c1cccc(Nc2nn3c(-c4ccc(OC)cc4)nnc3c3ccccc23)c1 [Compound 110, 3-[3-(4-Methoxyphenyl)-[1,2,4]triazolo[3,4-a]phthalazin-6-ylamino]-N-methylbenzamide]

Test system: HUVEC monolayers
Test: Inhibition of macromolecule (HRP) permeability of thrombin-stimulated HUVEC monolayers
Type: cell-based, human
Conditions: 10 μM Motapizone (PDE3) together with 1 μM RP73401 (PDE4), 1 U/ml thrombin
Procedure: The procedure to measure macromolecule permeability of endothelial cell monolayers followed the method described by Langeler & van Hinsbergh (1988) with modifications. Human umbilical vein endothelial cells were isolated from umbilical cords according to standard procedures (Jaffe et al. 1973) and cultured in endothelial cell basal medium (EBM) supplemented with 2% FCS, 0.5 ng/ml VEGF, 10 ng/ml bFGF, 5 ng/ml EGF, 20 ng/ml Long R3 IGF-1, 0.2 μg/ml hydrocortisone, 1 μg/ml ascorbic acid, 22.5 μg/ml heparin, 50 μg/ml gentamicin, 50 ng/ml amphotericin B (EGM2 purchased from Promocell GmbH, Heidelberg, Germany). At confluency, cells were trypsinized and replated at 73000 cells per well on 3 μm polycarbonate filter Transwell inserts (Costar GmbH, Bodenheim, Germany) precoated with 10 μg cm^2 −1 Fibronectin (Sigma, Taufkirchen, Germany). HUVECs were cultured in EGM2 (100 μl in the upper wells and 600 μl in the lower wells) over four days prior the experiments and medium was changed every other day. At the day of the experiment culture medium was replaced by M199 with 1% human serum albumin. Endothelial cells were preincubated with cyclic nucleotide modifiers (the selective PDE3 inhibitor motapizone, the selective PDE4 inhibitor RP73401, the cGMP generators ANP or SNP and PDE2 inhibitors) for 15 min. HUVECs were then stimulated with Thrombin (1 U ml^−1) (Sigma, Taufkichen, Germany) and horsh radish peroxidase (5 μg/ml) (Sigma, Taufkirchen, Germany) as the macromolecule marker protein was added to the upper wells. Following 1 h incubation time Transwells were removed and the activity of horsh radish peroxidase that penetrated the endothelial cell monolayer was measured in the lower wells with the 3,3′, 5,5′-tetramethylbenzidine liquid substrate system from Sigma (Taufkirchen, Germany).
In parallel, compounds according to the invention can inhibit Thrombin-induced permeability of HUVEC monolayers for horsh radish peroxidase (HRP) as a macromolecule marker. […] The concentration-dependent inhibition of HRP permeability at different concentrations was assessed from the percent inhibition in the presence and absence of the PDE2 inhibitors and in the presence of 1 μM RP73401, 10 μM Motapizone and 100 nM ANP.
HUVEC cells on 3 μm polycarbonate filters (Transwells) were preincubated with 1 μM RP73401 (to block PDE4) and 10 μM Motapizone (to block PDE3), 1 mM SNP or 100 nM ANP and 1 μM of test sample over 15 min and then stimulated with 1 U/ml thrombin. HRP passage into the lower wells was assessed after 60 min.

Row | Compound | Thrombin-induced increase of HRP permeability (hyperpermeability)
6 | CC1CC(=O)NN=C1c1cc(-n2ccnc2)cs1 (centres unmarked) [Motapizone, reference compound] | completely abolished; also recorded: completely blocked
7 | COc1ccc(C(=O)Nc2c(Cl)cncc2Cl)cc1OC1CCCC1 [RP73401, reference compound] | completely abolished; also recorded: completely blocked

Same assay, conditions: ANP (100 nM) or SNP (1 mM) in additional presence of 10 μM Motapizone and 1 μM RP73401

Row | Compound | Effect on the inhibition of permeability by PDE3 and 4 inhibition
8 | ANP: cGMP generator used to augment cGMP and activate PDE2 (SLRRSSCFGGRMDRIGAQSGLGCNSFRY; ends and bridges not checked; cysteine pairing not given here; UniProt P01160 124-151, looked up) [reference compound] | partially reversed

Same assay, conditions: Homo sapiens, 1 h; HUVEC, 1 μM RP73401, 10 μM Motapizone, 1 mM SNP or 100 nM ANP, 1 U/ml thrombin, HRP passage after 60 min; read-out: Inhibition of SNP- or ANP-induced permeability, −log IC50 (converted)

Row | Compound | IC50
9 | COCC(=O)Nc1ccc(Nc2nn3c(-c4ccc(OC)cc4)nnc3c3ccccc23)cc1 [Compound 4, 2-Methoxy-N-{4-[3-(4-methoxy-phenyl)-[1,2,4]triazolo[3,4-a]phthalazin-6-ylamino]-phenyl}-acetamide] | 2 to 63.1 nM
10 | COCCC(=O)Nc1ccc(Nc2nn3c(-c4ccc(OC)cc4)nnc3c3ccccc23)cc1 [Compound 5, 3-Methoxy-N-{4-[3-(4-methoxy-phenyl)-[1,2,4]triazolo[3,4-a]phthalazin-6-ylamino]-phenyl}-propionamide] | 2 to 63.1 nM
11 | COc1ccc(-c2nnc3c4ccccc4c(Nc4ccc(NC(=O)c5c[nH]cn5)cc4)nn23)cc1 [Compound 11, 1H-Imidazole-4-carboxylic acid {4-[3-(4-methoxy-phenyl)-[1,2,4]triazolo[3,4-a]phthalazin-6-ylamino]-phenyl}-amide] | 2 to 63.1 nM
12 | COc1ccc(-c2nnc3c4ccccc4c(Nc4ccc(NC(=O)C5CCCCN5)cc4)nn23)cc1 (centres unmarked) [Compound 12, Piperidine-2-carboxylic acid {4-[3-(4-methoxy-phenyl)-[1,2,4]triazolo[3,4-a]phthalazin-6-ylamino]-phenyl}-amide] | 2 to 63.1 nM
13 | COc1ccc(-c2nnc3c4ccccc4c(Nc4ccc(NC(=O)C(F)(F)F)cc4)nn23)cc1 [Compound 17, 2,2,2-Trifluoro-N-{4-[3-(4-methoxy-phenyl)-[1,2,4]triazolo[3,4-a]phthalazin-6-ylamino]-phenyl}-acetamide] | 2 to 63.1 nM
14 | COc1ccc(-c2nnc3c4ccccc4c(Nc4ccc(NC(=O)C5CC5)cc4)nn23)cc1 [Compound 18, Cyclopropanecarboxylic acid {4-[3-(4-methoxy-phenyl)-[1,2,4]triazolo[3,4-a]phthalazin-6-ylamino]-phenyl}-amide] | 2 to 63.1 nM
15 | COc1ccc(-c2nnc3c4ccccc4c(Nc4ccc(NC(=O)c5ccoc5)cc4)nn23)cc1 [Compound 21, Furan-3-carboxylic acid {4-[3-(4-methoxy-phenyl)-[1,2,4]triazolo[3,4-a]phthalazin-6-ylamino]-phenyl}-amide] | 2 to 63.1 nM
16 | COc1ccc(-c2nnc3c4ccccc4c(Nc4ccc(NC(=O)CN5CCOCC5)cc4)nn23)cc1 [Compound 25, N-{4-[3-(4-Methoxy-phenyl)-[1,2,4]triazolo[3,4-a]phthalazin-6-ylamino]-phenyl}-2-morpholin-4-yl-acetamide] | 2 to 63.1 nM
17 | O=C(Nc1ccc(Nc2nn3c(-c4ccccc4Br)nnc3c3ccccc23)cc1)C1CCCCN1 (centres unmarked) [Compound 30, Piperidine-2-carboxylic acid {4-[3-(2-bromo-phenyl)-[1,2,4]triazolo[3,4-a]phthalazin-6-ylamino]-phenyl}-amide] | 2 to 63.1 nM
18 | COc1ccc(-c2nnc3c4ccccc4c(Nc4cccc(NC(=O)C5CC5)c4)nn23)cc1 [Compound 38, Cyclopropanecarboxylic acid {3-[3-(4-methoxy-phenyl)-[1,2,4]triazolo[3,4-a]phthalazin-6-ylamino]-phenyl}-amide] | 2 to 63.1 nM
19 | COc1ccc(-c2nnc3c4ccccc4c(Nc4cccc(NC(=O)C5CCN(C(C)=O)CC5)c4)nn23)cc1 [Compound 54, 1-Acetyl-piperidine-4-carboxylic acid {3-[3-(4-methoxy-phenyl)-[1,2,4]triazolo[3,4-a]phthalazin-6-ylamino]-phenyl}-amide] | 2 to 63.1 nM
20 | CNC(=O)c1ccc(Nc2nn3c(-c4ccc(OC)cc4)nnc3c3ccccc23)cc1 [Compound 85, 4-[3-(4-Methoxy-phenyl)-[1,2,4]triazolo[3,4-a]phthalazin-6-ylamino]-N-methyl-benzamide] | 2 to 63.1 nM
